In patent US20090163591A1, “USE OF SUGAR PHOSPHATES, SUGAR PHOSPHATE ANALOGS, AMINO ACIDS AND/OR AMINO ACID ANALOGS FOR MODULATING THE GLUCOLYSIS-ENZYME COMPLEX, THE MALATE ASPARATE SHUTTLE AND/OR THE TRANSAMINASES” (priority 2001, published 2009):

Experiments:
[1] = tested on: Novikoff hepatoma; test: Novikoff hepatoma tumor model in rats, IV infusion, tumor volume; type: in vivo, rat; conditions: for inhibition of tumor growth if the tumor was relatively small at the beginning of the treatment: Novikoff hepatoma, IV infusion, in some cases apoptosis; for inhibition of the tumor growth (tumor size): subcutaneous Novikoff hepatoma, continuous IV infusion over 10 days, 1.25 mM aminooxyacetate or 10 μM CHBA, beginning with a tumor volume of 1 ml, vs NaCl control
Protocol: As a tumor model, immuno-competent adult rats were used, treated with IV infusion. This animal model provides better correlation to human therapy than immuno-incompetent nude mice, which are commonly used. The animal tests were approved according to paragraph 8 section 1 of the German Animal Protection Act, and were performed according to the recommendations of the Tieraerztliche Vereinigung fuer Tierschutz e.V. (Veterinarians' Association for Animal Protection). Male inbreed rats (Sprague-Dawley, 200-250 g, Charles River, Sulzfeld, Germany) were used as tumor recipients.
Novikoff hepatoma was used as the source of tumor cells. Of several tested, experimentally produced tumors, the Novikoff hepatoma best all requirements of a solid tumor having all signs of malignity and similarity to hepatocellular carcinoma in humans. The Novikoff hepatoma was induced by Alex B. Novikoff in […] by feeding a diet containing 0.06% […] (butter yellow) to female Sprague-Dawley rats (Novikoff B., A transplantable rat liver tumour induced by 4-dimethylaminoazobenzene. Cancer Res. 1951; 17:1010). […] The chromatin structure in the tumor cells appears in an irregular form, and the nuclei are indented, round and oval.
The Deutsches Krebsforschungsinstitut in Heidelberg provided the Novikoff hepatoma cells. The cells were received in Hank's solution and intraperitoneally injected in a sterile manner into a Sprague-Dawley rat for passaging. Within a week, approximately 50 ml hemorrhagic ascites were generated and removed in a sterile manner. The pellet generated after centrifugation at 1,300 rpm for five minutes in a Falcon tube was prepped for further purification of cells from other ascites components by washing with 50 ml Dulbecco's MEM (Gibco BRL, Eggenstein) and centrifugation at 1,300 rpm for five minutes. The supernatant was decanted, and the pellet was mixed in Dulbecco's+40% fetal calf serum (FCS). 0.7 ml cell suspension and 0.7 freezing medium each were filled in Nunc tubes, airtight sealed, pre-cooled for five minutes at −20° C. and for 12 hours at −80° C., and then deep-frozen in liquid nitrogen. The freezing medium was 40% Dulbecco's, 40% FCS and 20% DMSO.
The cells were prepared for the application as follows: after thawing, the pellet was reacted in a Falcon tube with 50 ml of a medium (Dulbecco's+40% FCS), pre-heated to 37° C., and centrifuged for five minutes at 1,300 rpm. […]
After centrifugation and decantation of the supernatant, the pellet was suspended in HBSS, 100 microlitres were sampled with an Eppendorf pipette and counted for determining the number of vital cells after vital staining with erythrosine (BioMed, Munich, Germany) in a Neubauer counting chamber. […]
The tumor size was determined by CT-supported volumetry. […]

[2] = tested on: Novikoff hepatoma cells; test: Dose-dependence of proliferation inhibition, cell density of cultivated Novikoff hepatoma cells; type: cell-based, rat; conditions: four days of cultivation, at higher dosage levels
Protocol: For the experiments, Novikoff hepatoma cells were cultivated in a conventional manner. The control substance contained a solvent without an active ingredient. The other groups received different doses of a respective test compound. After four days of cultivation with or without active ingredient, the cell density was determined using standard methods. In FIG. 2 is shown the dose-dependence of obtained cell densities for aminooxyacetate, in FIG. 3 for CHBA, in FIG. 4 for glycerate-2,3-bisphosphate, and in FIG. 5 for fructose-1,6-bisphosphate.

[3] = target: M2-PK (Homo sapiens, UniProt P14618); conditions: known from Eigenbrodt et al. 1992; cited from earlier work
Chain of M2-PK (P14618 whole entry, species assumed): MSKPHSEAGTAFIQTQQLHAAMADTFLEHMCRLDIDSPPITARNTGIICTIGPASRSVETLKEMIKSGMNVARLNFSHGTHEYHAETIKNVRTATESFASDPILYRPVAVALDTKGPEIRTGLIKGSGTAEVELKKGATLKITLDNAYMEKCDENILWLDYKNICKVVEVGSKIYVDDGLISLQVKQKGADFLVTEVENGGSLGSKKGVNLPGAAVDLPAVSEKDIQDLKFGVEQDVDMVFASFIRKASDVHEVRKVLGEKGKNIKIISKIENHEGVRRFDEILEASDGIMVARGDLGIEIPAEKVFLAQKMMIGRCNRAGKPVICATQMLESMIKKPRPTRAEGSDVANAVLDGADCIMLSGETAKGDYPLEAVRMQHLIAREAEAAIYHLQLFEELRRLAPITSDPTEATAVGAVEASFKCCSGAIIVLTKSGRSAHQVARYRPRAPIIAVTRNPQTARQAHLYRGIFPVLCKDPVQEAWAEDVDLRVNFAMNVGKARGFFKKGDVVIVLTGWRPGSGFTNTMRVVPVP

[4] = tested on: cells; conditions: known from Eigenbrodt et al. 1994; cited from earlier work
[5] = target: T1, glutamate pyruvate transaminase (Homo sapiens, UniProt P24298); conditions: known from Eigenbrodt et al. 1994; cited from earlier work
T1 sequence (P24298 2-496 limits assumed): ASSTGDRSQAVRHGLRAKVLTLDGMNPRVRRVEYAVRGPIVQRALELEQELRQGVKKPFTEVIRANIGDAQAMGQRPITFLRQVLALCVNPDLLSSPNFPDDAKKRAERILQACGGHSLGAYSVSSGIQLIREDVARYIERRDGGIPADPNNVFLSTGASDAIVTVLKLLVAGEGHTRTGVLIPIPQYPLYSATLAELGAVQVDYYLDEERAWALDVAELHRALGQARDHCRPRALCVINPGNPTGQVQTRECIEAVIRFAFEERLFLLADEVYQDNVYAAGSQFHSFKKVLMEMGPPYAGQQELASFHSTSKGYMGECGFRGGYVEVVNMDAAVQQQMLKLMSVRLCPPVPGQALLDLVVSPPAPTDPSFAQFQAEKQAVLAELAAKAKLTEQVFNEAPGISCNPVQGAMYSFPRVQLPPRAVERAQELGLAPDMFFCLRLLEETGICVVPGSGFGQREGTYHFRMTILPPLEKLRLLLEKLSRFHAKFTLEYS

CC(O)=C(C#N)C(=O)Nc1ccc(C(F)(F)F)cc1 [CHBA, 2-cyano-3-hydroxy-but-2-(4-trifluoromethyl-phenyl)-amide]
inhibition of tumor growth if the tumor was relatively small at the beginning of the treatment [1]: practically complete inhibition | inhibition of the tumor growth (tumor size) [1]: substantial inhibition | inhibition of cell density (proliferation) [2]: practically complete inhibition

C[C@H](N)C(=O)O [alanine]
inhibition of M2-PK [3]: inhibit

NOCC(=O)O [aminooxyacetate]
inhibition of tumor growth if the tumor was relatively small at the beginning of the treatment [1]: practically complete inhibition | inhibition of the tumor growth (tumor size) [1]: substantial inhibition | inhibition of cell density (proliferation) [2]: practically complete inhibition | inhibition of the proliferation of cells [4]: can inhibit | inhibition of glutamate pyruvate transaminase [5]: inhibit

N[C@@H]1CON=C1O [cycloserine, reference compound]
inhibition of the proliferation of cells [4]: can inhibit | inhibition of glutamate pyruvate transaminase [5]: inhibit

O=C(COP(=O)(O)O)[C@@H](O)[C@H](O)[C@H](O)COP(=O)(O)O [fructose-1,6-bisphosphate]
displacement of the dimeric form to the highly active tetrameric form of M2-PK [3]: leads to a displacement of the dimeric form to the highly active tetrameric form | inhibition of cell density (proliferation) [2]: practically complete inhibition

O=C(O)C(COP(=O)(O)O)OP(=O)(O)O (stereo not drawn) [glycerate-2,3-bisphosphate]
inhibition of cell density (proliferation) [2]: practically complete inhibition

CC(C)C[C@H](N)C(=O)O [leucine]
inhibition of M2-PK [3]: inhibit
